The results in this text go back to patent US7371889B2, “Chemical entities with multiple modes of anti-inflammatory action” (Sami Labs Limited, priority 2002, dated 2008).

Assay [1] relates to Freund's adjuvant (FA) arthritis. Briefly: Freund's adjuvant (FA) arthritis in rats, nociception. The assay is classed as in vivo. Particulars: oral administration, dose giving the same extent of inhibition. On the procedure:
Freund's adjuvant (FA) arthritis was induced in rats by a single intraplantar injection into the right hindpaw of 100 microl of Mycobacterium butirricum (6 mg/mL). […] Hindpaw swelling (days 3, 7, 11, 14, 17, 21) and nociception (days 15 and 21) were measured. On day 22 rats were sacrificed, draining lymph nodes were removed and T cells isolated. In vitro proliferation of T cells following stimulation with concanavalin A (0.5-5 mcg/mL) was measured using a tritiated thymidine incorporation assay.

A further assay deals with T cells. Briefly: In vitro proliferation of T cells from draining lymph nodes after concanavalin A stimulation, tritiated thymidine incorporation. In kind it is cell-based. To be noted: T cells isolated day 22 from treated rats, thymidine uptake. On the procedure:
Hindpaw swelling (days 3, 7, 11, 14, 17, 21) and nociception (days 15 and 21) were measured. On day 22 rats were sacrificed, draining lymph nodes were removed and T cells isolated. In vitro proliferation of T cells following stimulation with concanavalin A (0.5-5 mcg/mL) was measured using a tritiated thymidine incorporation assay.
IL-2 receptor expression on T cells was measured by FACS analysis. […] T cells were isolated and characterized by FACS analysis.
For orientation: Uptake of a labelled nucleoside into DNA is a usual measure of proliferation.

`CC(=O)O[C@@H]1CC[C@@]2(C)[C@@H](CC[C@]3(C)[C@@H]2C(=O)C=C2[C@@H]4[C@@H](C)[C@H](C)CC[C@]4(C)CC[C@@]23C)[C@@]1(C)C(=O)OCOC(=O)C(C)c1ccc(CC(C)C)cc1` (some centres unmarked) [SA-040, AKBBA-Ibuprofen conjugate]: the “dose at which anti-nociceptive” value in assay [1] came to 5.9 mg/kg. Moreover, the “order of activity, inhibition of T-cell proliferation” value in the assay with T cells is “SA-041>SA-040>N>1>AKBBA”.

Turning to `CC(=O)OC1CCC2(C)C(CCC3(C)C2C(=O)C=C2C4C(C)C(C)CCC4(C)CCC23C)C1(C)C(=O)OCCl` (stereo not drawn) [Example 1, 3-Acetyl-11-keto-β-boswellic acid chloromethyl ester], the “order of activity, inhibition of T-cell proliferation” value in the assay with T cells is “SA-041>SA-040>N>1>AKBBA”.

For `COc1ccc2cc([C@H](C)C(=O)O)ccc2c1` [N, Naproxen, reference compound], in the assay with T cells, the “order of activity, inhibition of T-cell proliferation” value is given as “SA-041>SA-040>N>1>AKBBA”.

As for `CC(=O)O[C@@H]1CC[C@@]2(C)[C@@H](CC[C@]3(C)[C@@H]2C(=O)C=C2[C@@H]4[C@@H](C)[C@H](C)CC[C@]4(C)CC[C@]23C)[C@@]1(C)C(=O)O` [AKBBA, 3-acetyl-11-keto-β-boswellic acid, reference compound], the “order of activity, inhibition of T-cell proliferation” value in the assay on T cells is listed as “SA-041>SA-040>N>1>AKBBA”.
